Measurements reported in PMC4763008, “Selective Inhibition of Bakuchicin Isolated from Psoralea corylifolia on CYP1A in Human Liver Microsomes” (Evidence-based Complementary and Alternative Medicine : eCAM, 2016).
Where two headings read alike, the source gives them in different places.

Columns and labels:
Assay type in all cases: in vitro ADME
CYP3A4 = target: T1, CYP3A4 (Homo sapiens, UniProt P08684); experiment: CYP inhibition, cocktail of probe substrates in pooled human liver microsomes: midazolam 1'-hydroxylation; conditions: pooled HLMs, substrate 2.5 μM
T1 construct: each reaction was performed with 0.5 mg/mL pooled human liver microsomes; tissue Corning Gentest BD UltraPool HLM 150; host or cells: pooled human liver microsomes
T1 sequence (P08684 whole entry): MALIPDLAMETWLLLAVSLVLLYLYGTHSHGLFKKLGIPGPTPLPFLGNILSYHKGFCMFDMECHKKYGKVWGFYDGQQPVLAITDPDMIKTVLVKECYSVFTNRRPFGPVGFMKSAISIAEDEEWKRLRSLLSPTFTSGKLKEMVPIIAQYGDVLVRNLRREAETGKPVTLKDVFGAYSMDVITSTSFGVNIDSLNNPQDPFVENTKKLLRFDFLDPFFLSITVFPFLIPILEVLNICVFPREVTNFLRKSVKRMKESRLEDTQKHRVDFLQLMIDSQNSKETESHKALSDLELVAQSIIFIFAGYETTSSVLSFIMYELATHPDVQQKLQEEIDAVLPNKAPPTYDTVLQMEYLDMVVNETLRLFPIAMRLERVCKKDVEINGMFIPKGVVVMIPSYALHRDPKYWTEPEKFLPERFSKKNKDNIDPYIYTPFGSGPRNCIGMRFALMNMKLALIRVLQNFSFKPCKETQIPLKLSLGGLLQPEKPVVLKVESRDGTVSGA

CYP2C9 = target: T2, CYP2C9 (Homo sapiens, UniProt P11712); experiment: CYP inhibition, cocktail of probe substrates in pooled human liver microsomes: diclofenac 4'-hydroxylation; conditions: pooled HLMs, substrate 10 μM
T2 construct: each reaction was performed with 0.5 mg/mL pooled human liver microsomes; tissue Corning Gentest BD UltraPool HLM 150; host or cells: pooled human liver microsomes
T2 sequence (P11712 whole entry): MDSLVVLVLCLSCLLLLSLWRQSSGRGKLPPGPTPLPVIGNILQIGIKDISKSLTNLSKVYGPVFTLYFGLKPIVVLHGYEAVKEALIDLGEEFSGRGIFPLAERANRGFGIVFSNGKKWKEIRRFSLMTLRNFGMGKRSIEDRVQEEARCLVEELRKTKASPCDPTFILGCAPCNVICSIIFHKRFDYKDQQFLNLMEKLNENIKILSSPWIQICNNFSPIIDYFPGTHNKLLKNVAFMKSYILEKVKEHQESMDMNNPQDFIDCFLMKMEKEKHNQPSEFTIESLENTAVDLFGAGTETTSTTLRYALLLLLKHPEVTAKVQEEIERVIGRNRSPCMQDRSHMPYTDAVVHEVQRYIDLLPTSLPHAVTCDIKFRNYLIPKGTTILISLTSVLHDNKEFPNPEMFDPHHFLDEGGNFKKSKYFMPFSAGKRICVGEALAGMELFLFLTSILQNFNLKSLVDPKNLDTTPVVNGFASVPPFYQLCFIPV

CYP2C8 = target: T3, CYP2C8 (Homo sapiens, UniProt P10632); experiment: CYP inhibition, cocktail of probe substrates in pooled human liver microsomes: paclitaxel hydroxylation; conditions: pooled HLMs, substrate 10 μM
T3 construct: each reaction was performed with 0.5 mg/mL pooled human liver microsomes; tissue Corning Gentest BD UltraPool HLM 150; host or cells: pooled human liver microsomes
T3 sequence (P10632 1-490): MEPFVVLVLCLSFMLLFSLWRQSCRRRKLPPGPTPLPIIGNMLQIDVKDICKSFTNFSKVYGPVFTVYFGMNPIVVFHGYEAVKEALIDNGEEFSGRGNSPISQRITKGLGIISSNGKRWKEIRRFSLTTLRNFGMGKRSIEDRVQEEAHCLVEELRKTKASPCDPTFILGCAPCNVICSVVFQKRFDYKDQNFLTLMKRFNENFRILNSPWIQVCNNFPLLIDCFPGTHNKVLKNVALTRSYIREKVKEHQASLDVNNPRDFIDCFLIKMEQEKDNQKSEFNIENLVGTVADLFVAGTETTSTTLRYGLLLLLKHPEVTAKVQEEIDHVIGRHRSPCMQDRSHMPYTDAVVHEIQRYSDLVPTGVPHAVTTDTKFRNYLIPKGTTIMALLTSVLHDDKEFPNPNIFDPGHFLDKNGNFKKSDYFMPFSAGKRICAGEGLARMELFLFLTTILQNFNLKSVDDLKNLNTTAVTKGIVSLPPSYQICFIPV

[1] = 15 min preincubation with NADPH, read-out: IC50 With preincubation with NADPH
[2] = 15 min preincubation without NADPH, read-out: IC50 With preincubation Without NADPH
[3] = without preincubation, read-out: IC50 Without preincubation

Measured: IC50

O=c1ccc2c(ccc3ccoc32)o1 [Bakuchicin]
> 100 µM: CYP3A4; [1] | CYP3A4; [2] | CYP3A4; [3] | CYP2C9; [1] | CYP2C9; [2] | CYP2C9; [3] | CYP2C8; [1] | CYP2C8; [2] | CYP2C8; [3]
